Calls of active or inactive are those of the source. No cut-off for these calls is given here.
Assays:
Staphylococcus aureus [1] = assay: Antimicrobial activity against methicillin-resistant Staphylococcus aureus MB5393 at 128 ug/ml by CLSI protocol based method; assay type: functional, organism-based
Acinetobacter baumannii = assay: Antimicrobial activity against Acinetobacter baumannii MB5973 at 128 ug/ml by CLSI protocol based method; assay type: functional, organism-based
A549 = assay: Cytotoxicity in human A549 cells incubated for 24 hrs by MTT assay; assay type: functional, cell-based
MIA PaCa-2 = assay: Cytotoxicity in human MIAPaCa2 cells incubated for 24 hrs by MTT assay; assay type: functional, cell-based
HepG2 = assay: Cytotoxicity in human HepG2 cells incubated for 24 hrs by MTT assay; assay type: functional, cell-based
Staphylococcus aureus [2] = assay: Antimicrobial activity against methicillin-sensitive Staphylococcus aureus ATCC 29213 at 128 ug/ml by CLSI protocol based method; assay type: functional, organism-based
Candida albicans = assay: Antimicrobial activity against Candida albicans ATCC 64124 at 128 ug/ml by CLSI protocol based method; assay type: functional, organism-based
Klebsiella pneumoniae = assay: Antimicrobial activity against Klebsiella pneumoniae ATCC 700603 at 128 ug/ml by CLSI protocol based method; assay type: functional, organism-based
Escherichia coli = assay: Antimicrobial activity against Escherichia coli ATCC 25922 at 128 ug/ml by CLSI protocol based method; assay type: functional, organism-based
Pseudomonas aeruginosa = assay: Antimicrobial activity against Pseudomonas aeruginosa PAO1 at 128 ug/ml by CLSI protocol based method; assay type: functional, organism-based

| Structure (SMILES) | Activity (Staphylococcus aureus [1]) | Activity (Acinetobacter baumannii) | IC50 (A549) | IC50 (MIA PaCa-2) | IC50 (HepG2; hepg2) | Activity (Staphylococcus aureus [2]) | Activity (Candida albicans) | Activity (Klebsiella pneumoniae) | Activity (Escherichia coli) | Activity (Pseudomonas aeruginosa) | IC50 (HepG2; Homo sapiens, HepG2, 24 h, read-out: IC50) |
| --- | --- | --- | --- | --- | --- | --- | --- | --- | --- | --- | --- |
| C[N+](C)(C)CCc1cc(I)c(O)c(I)c1.O=C([O-])C(F)(F)F | inactive | inactive | Not Active | Not Active | Not Active | inactive | inactive | inactive | inactive | inactive | – |
| C[N+]1(C)CCC[C@@H]1C(=O)N[C@@H](Cc1cc(Br)c(O)c(Br)c1)C(=O)O.O=C([O-])C(F)(F)F | inactive | inactive | Not Active | Not Active | Not Active | inactive | inactive | inactive | inactive | inactive | – |
| C[N+](C)(C)CC(=O)N[C@@H](Cc1cc(Br)c(O)c(I)c1)C(=O)O.O=C([O-])C(F)(F)F | inactive | inactive | Not Active | Not Active | – | inactive | inactive | inactive | inactive | inactive | 7.8 µM |
| C[N+](C)(C)CCc1cc(Br)c(O)c(I)c1.O=C([O-])C(F)(F)F | inactive | inactive | Not Active | Not Active | Not Active | inactive | inactive | inactive | inactive | inactive | – |
| CCC(C)C(=O)Nc1nc2c([nH]1)[C@@H](C)c1[nH]c(NC(=O)C=C(C)C)nc1CC2 (some centres not stated) | inactive | inactive | Not Active | Not Active | Not Active | inactive | inactive | inactive | inactive | inactive | – |
| CC(C)=CC(=O)Nc1nc2c([nH]1)[C@H](C)c1[nH]c(NC(=O)C(C)C)nc1CC2 | inactive | inactive | Not Active | Not Active | Not Active | inactive | inactive | inactive | inactive | inactive | – |
| C[N+]1(C)CCC[C@@H]1C(=O)N[C@@H](Cc1cc(Br)c(O)c(I)c1)C(=O)O | inactive | inactive | – | – | – | inactive | inactive | inactive | inactive | inactive | – |
| C[N+](C)(C)CC(=O)N[C@@H](Cc1cc(Br)c(O)c(Br)c1)C(=O)O.O=C([O-])C(F)(F)F | inactive | inactive | Not Active | Not Active | Not Active | inactive | inactive | inactive | inactive | inactive | – |
